The results in this text go back to the supplement of paper PMC11208160.

The data set can be described thus: recombinant barcode read abundance after kanamycin selection (control-corrected) (log10(CPM+1)); higher = more efficient recombination; sequences stand for … in AGTGCAGAGAAAATCGGCCAGTTTTCTCTGCCTGCAGTCCGCATGCCGT…AGATTTATGCAGCGGACTGCCTTTCTCCCAAAGTGATAAACCGGACAGTATCATGGACCGGTTTTCCCGGTAATCCGTATTTGCAAGGTTGGTTTCACT; site = the 11-nt target. An outline of the steps:
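Recombination efficiency in this pooled E. coli screen uses counts per million of barcodes at recombinant junctions, averaged and corrected against the control. The reported form is log10(CPM+1). Two replicates were plated on chloramphenicol/ampicillin LB agar as control and two on chloramphenicol/ampicillin/kanamycin with 0.1 mM IPTG.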
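Note: IS621 recombinase and bridge RNA in Escherichia coli cells.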

For the sequence “GATGTACCTTGGGTTCTAACCTGTTGCCT (site GATGTACCTAG)”, the “recombinant barcode read abundance (log10)” value is 1.7.

For “GATGTACCTTGGGTTCTAACCTGTTGCCT (site TATGTACCTAG)”, the “recombinant barcode read abundance (log10)” value amounted to 1.06. With “GATGTGACTTGGGTTCTAACCTGTTGCCT (site GATGCGACTCG)” the figure was 0.182; with “GATGTGACTTGGGTTCTAACCTGTTGCCT (site GATGTGACTAG)”, 2.3; with “GATTAGACTTGGGTTCTAACCTGTTGCCT (site AATTAGACTAG)”, 0.308. In the case of “GATTAGACTTGGGTTCTAACCTGTTGCCT (site CATTAGACTAG)”, the “recombinant barcode read abundance (log10)” value was 0.0591. In the case of “GATTAGACTTGGGTTCTAACCTGTTGCCT (site GATTAGACTAG)”, the “recombinant barcode read abundance (log10)” value amounted to 1.09.

For “GATTAGACTTGGGTTCTAACCTGTTGCCT (site TATTAGACTAG)”, the “recombinant barcode read abundance (log10)” value came to 0.331. With “GATTCACCTTGGGTTCTAACCTGTTGCCT (site AATTCACCTAG)” the figure was 0.543; with “GATTCACCTTGGGTTCTAACCTGTTGCCT (site CATTCACCTAG)”, 0.0425. With “GATTCACCTTGGGTTCTAACCTGTTGCCT (site GATTCACCTAG)” the figure was 0.739. For the sequence “GATTCACCTTGGGTTCTAACCTGTTGCCT (site TATTCACCTAG)”, the “recombinant barcode read abundance (log10)” value was found to be 0.274. For the sequence “GATTTCTCTTGGGTTCTAACCTGTTGCCT (site AATTTCTCTAG)”, the “recombinant barcode read abundance (log10)” value turned out to be 0.104. With “GATTTCTCTTGGGTTCTAACCTGTTGCCT (site CATTTCTCTAG)”, the “recombinant barcode read abundance (log10)” value worked out at 0.0742.

In the case of “GATTTCTCTTGGGTTCTAACCTGTTGCCT (site GATTTCTCTAG)”, the “recombinant barcode read abundance (log10)” value was 0.228.

In the case of “GATTTCTCTTGGGTTCTAACCTGTTGCCT (site TATTTCTCTAG)”, the “recombinant barcode read abundance (log10)” value was found to be 0.124. Regarding “GCAAGATCTTGGGTTCTAACCTGTTGCCT (site GCAAGATCTAG)”, the “recombinant barcode read abundance (log10)” value stood at 1.36. With “GCAAGATCTTGGGTTCTAACCTGTTGCCT (site GCAGGGTCTAG)” the figure was 0.0113; with “GCAATGACTTGGGTTCTAACCTGTTGCCT (site GAAATGACTAG)”, 0. With “GCAATGACTTGGGTTCTAACCTGTTGCCT (site GCAATGACTAG)” the figure was 1.88; with “GCAATGACTTGGGTTCTAACCTGTTGCCT (site GGAATGACTAG)”, 0.105; with “GCAATGACTTGGGTTCTAACCTGTTGCCT (site GTAATGACTAG)”, 0.292.

With “GCAATGTCTTGGGTTCTAACCTGTTGCCT (site GAAATGTCTAG)”, the “recombinant barcode read abundance (log10)” value was 0.104. The result for “GCAATGTCTTGGGTTCTAACCTGTTGCCT (site GCAATGTCTAG)” reads 1.42; that for “GCAATGTCTTGGGTTCTAACCTGTTGCCT (site GGAATGTCTAG)”, 0.239. The result for “GCAATGTCTTGGGTTCTAACCTGTTGCCT (site GTAATGTCTAG)” reads 0.443; that for “GCACACCCTTGGGTTCTAACCTGTTGCCT (site CCACATCCTAG)”, 0.0345; that for “GCACACCCTTGGGTTCTAACCTGTTGCCT (site GCACACCCTAG)”, 1.1. The result for “GCACATCCTTGGGTTCTAACCTGTTGCGT (site GCAAATCCTAG)” reads 0.154. For the sequence “GCACATCCTTGGGTTCTAACCTGTTGCGT (site GCACATCCTAC)”, the “recombinant barcode read abundance (log10)” value was 2.53. In the case of “GCACCTGCTTGGGTTCTAACCTGTTGCCT (site GCACCTGCTAG)”, the “recombinant barcode read abundance (log10)” value amounted to 1.61. The result for “GCACCTGCTTGGGTTCTAACCTGTTGCCT (site TATTTGCCTCA)” reads 0.238; that for “GCACGCTCTTGGGTTCTAACCTGTTGCCT (site GCACACTCTAG)”, 0.607. With “GCACGCTCTTGGGTTCTAACCTGTTGCCT (site GCACCCTCTAG)” the figure was 0.192.

On to “GCACGCTCTTGGGTTCTAACCTGTTGCCT (site GCACGCTCTAG)”, for which the “recombinant barcode read abundance (log10)” value came to 1.55. The result for “GCACGCTCTTGGGTTCTAACCTGTTGCCT (site GCACTCTCTAG)” reads 0.12. The result for “GCACTCTCTTGGGTTCTAACCTGTTGCCT (site GCACACTCTAG)” reads 0.0251; that for “GCACTCTCTTGGGTTCTAACCTGTTGCCT (site GCACCCTCTAG)”, 0.568.

Regarding “GCACTCTCTTGGGTTCTAACCTGTTGCCT (site GCACGCTCTAG)”, the “recombinant barcode read abundance (log10)” value turned out to be 0.101. With “GCACTCTCTTGGGTTCTAACCTGTTGCCT (site GCACTCTCTAG)” the figure was 1.58. “GCATCCACTTGGGTTCTAACCTGTTGCCT (site GCATCCACTAG)”: the “recombinant barcode read abundance (log10)” value was 0.938. With “GCATCCACTTGGGTTCTAACCTGTTGCCT (site GCGTCCACTAG)” the figure was 0.0333; with “GCATCTACTTGGGTTCTAACCTGTTGCCT (site GAATCTACTAG)”, 0.101.

With “GCATCTACTTGGGTTCTAACCTGTTGCCT (site GCATCTACTAG)”, the “recombinant barcode read abundance (log10)” value stood at 0.136. The result for “GCATCTACTTGGGTTCTAACCTGTTGCCT (site GGATCTACTAG)” reads 0.059. The result for “GCATCTACTTGGGTTCTAACCTGTTGCCT (site GTATCTACTAG)” reads 0.2; that for “GCATCTCCTTGGGTTCTAACCTGTTGCCT (site ACATCTCCTAG)”, 0.4. The result for “GCATCTCCTTGGGTTCTAACCTGTTGCCT (site CCATCTCCTAG)” reads 0.103; that for “GCATCTCCTTGGGTTCTAACCTGTTGCCT (site GCATCTCCTAG)”, 1.06. As for “GCATCTCCTTGGGTTCTAACCTGTTGCCT (site TCATCTCCTAG)”, the “recombinant barcode read abundance (log10)” value was 0.0491.

For the sequence “GCATGAGCTTGGGTTCTAACCTGTTGCCT (site GCATGAGCTAG)”, the “recombinant barcode read abundance (log10)” value is 2.09. With “GCATGAGCTTGGGTTCTAACCTGTTGCCT (site GCCTGAGCTAG)”, the “recombinant barcode read abundance (log10)” value came out at 0.122.

“GCATGAGCTTGGGTTCTAACCTGTTGCCT (site GCGTGAGCTAG)”: the “recombinant barcode read abundance (log10)” value turned out to be 0.136. With “GCATGAGCTTGGGTTCTAACCTGTTGCCT (site GCTTGAGCTAG)” the figure was 0.914. Consider “GCCAACCCTTGGGTTCTAACCTGTTGCAT (site GCCAACCCTAA)”, for which the “recombinant barcode read abundance (log10)” value came out at 0.0781. With “GCCAACCCTTGGGTTCTAACCTGTTGCAT (site GCCAACCCTAC)” the figure was 0.0603; with “GCCAACCCTTGGGTTCTAACCTGTTGCAT (site GCCAACCCTAG)”, 0.348; with “GCCAACCCTTGGGTTCTAACCTGTTGCAT (site GCCAACCCTAT)”, 0. With “GCCAACCCTTGGGTTCTAACCTGTTGCTA (site GCCAACCCTTA)” the figure was 0.116; with “GCCAACCCTTGGGTTCTAACCTGTTGCTA (site TCCAACCCTTG)”, 0.129; with “GCCACACCTTGGGTTCTAACCTGTTGCCT (site GCCAAACCTAG)”, 0.188.

On to “GCCACACCTTGGGTTCTAACCTGTTGCCT (site GCCACACCTAG)”, for which the “recombinant barcode read abundance (log10)” value was found to be 0.222.

Turning to “GCCACACCTTGGGTTCTAACCTGTTGCCT (site GCCAGACCTAG)”, the “recombinant barcode read abundance (log10)” value turned out to be 0.177. With “GCCACACCTTGGGTTCTAACCTGTTGCCT (site GCCATACCTAG)” the figure was 0.153; with “GCCAGGGCTTGGGTTCTAACCTGTTGCCG (site GCCAGGGCTCG)”, 0.461; with “GCCAGGGCTTGGGTTCTAACCTGTTGCCG (site GCCCGGGCTCG)”, 0.264. On to “GCCAGGGCTTGGGTTCTAACCTGTTGCCG (site GCCGGGGCTCG)”, for which the “recombinant barcode read abundance (log10)” value was 0.111. The result for “GCCAGGGCTTGGGTTCTAACCTGTTGCCG (site GCCTGGGCTCG)” reads 0.0195. The result for “GCCATACCTTGGGTTCTAACCTGTTGCCT (site GCCAAACCTAG)” reads 0.0715; that for “GCCATACCTTGGGTTCTAACCTGTTGCCT (site GCCACACCTAG)”, 0.0723; that for “GCCATACCTTGGGTTCTAACCTGTTGCCT (site GCCAGACCTAG)”, 0.194.

On to “GCCATACCTTGGGTTCTAACCTGTTGCCT (site GCCATACCTAG)”, for which the “recombinant barcode read abundance (log10)” value was 0.199. With “GCCATGACTTGGGTTCTAACCTGTTGCCT (site GCCATAACTAG)” the figure was 0.067; with “GCCATGACTTGGGTTCTAACCTGTTGCCT (site GCCATCACTAG)”, 0.0872; with “GCCATGACTTGGGTTCTAACCTGTTGCCT (site GCCATGACTAG)”, 0.132. Regarding “GCCATGACTTGGGTTCTAACCTGTTGCCT (site GCCATTACTAG)”, the “recombinant barcode read abundance (log10)” value amounted to 0.

On to “GCCCAATCTTGGGTTCTAACCTGTTGCCT (site GCCCAATCTAG)”, for which the “recombinant barcode read abundance (log10)” value turned out to be 1.05.
